The record followed here is patent publication US20220127298A1, “THERMOSPOROTHRIX HAZAKENSIS-DERIVED ANTIBACTERIALLY ACTIVE SUBSTANCE” (KENNAN EISEI KOGYO CO., LTD., priority 2019, published 2022).

Common to all, as to assay type: cell-based
One series has as its system Streptomyces sp. AGRN-7. Description: Antibacterial spectrum test, paper disk assay. Particulars: 50 μL of 1000 γ solution in methanol, ISP2 medium, 45° C., 2 days. As for the experimental part: The antibacterial activity of HK-1 was assayed using a paper disk against the following bacterial bodies.
A piece of ice out of a glycerol stock of S. griseus stored at −80° C. was planarly inoculated on the YMPD agar culture medium with a toothpick. This was incubated at 28° C. for 5 days. After the incubation, a small amount of spore was scraped off with a swab, and planarly inoculated on the YMPD culture medium. A piece of paper disk was placed on a filter paper, onto which 50 μL of a HK-1 solution adjusted to 1000 γ with methanol was dropped and dried. Then the disk was placed on the agar culture medium coated with the bacterial body. After incubation at 28° C. for 4 days, the diameter of the inhibition ring was measured.
An assay was performed in the same manner as in 3 above, except that the incubation conditions were changed to ISP2 culture medium, 45° C., and 2-day period.

The test system of series [1] is Geobacillus stearothermophilus 111499 MERCK (ATCC 7953). Description: Measurement of minimum inhibitory concentration, dilution method with liquid culture medium. As to conditions: ATCC7953, LB liquid medium, 60° C., 135 rpm, 18 hours, visual observation and OD600. An excerpt:
(§1) The minimum inhibitory concentration (MIC) is one of the antibiotic susceptibility tests, and means the minimum concentration of an antimicrobial substance at which the visible growth of a microorganism can be inhibited. In the research field, the MIC measurement is used, for example, to compare the effects of a new antibiotic substance and a conventional substance, or to examine actions on several strains, and is regarded as an important criterion for evaluating antibiotic substances. The MIC of “HK-1” which was obtained hereunder as the antibacterial active substance was measured using the dilution method with a liquid culture medium.
(§2) A piece of ice out of a glycerol stock of G. stearothermophilus stored at −80° C. was planarly inoculated on the LB agar culture medium with a toothpick. This was incubated at 60° C. for 18 hours. One (1) cm^2 of the culture medium was excavated with a toothpick, placed into a long test tube containing 10 mL of a liquid LB culture medium, and subjected to a shaking culture at 60° C., and 300 rpm, for 18 hours. The culture solution was diluted with sterile water to about McF standard No. 1.
Two (2) mg of HK-1 was weighed out into a 2 mL Eppendorf tube using an electric balance. To this Eppendorf tube, 2 mL of methanol was added to dissolve the HK-1 to form a […] solution. The solution was filtrated through a sterilized […] filter. […]

The subject of series [2] is Bacillus subtilis NBRC 3134^T. Described as above. Particulars: NBRC3134, LB liquid medium, 37° C., 135 rpm, 18 hours, visual observation and OD600.
Source text: as §1, §2
The preparation was performed in the same manner as in 1 above, only except that the temperature was changed to 37° C.
Two (2) mg of HK-1 was weighed out into a 2 mL Eppendorf tube using an electric balance. […]

Series [3] deals with Geobacillus stearothermophilus ATCC 7953. Description: Antibacterial activity test in changing pH, paper disk assay. Particulars: 1000 γ in methanol, 50 μL on paper disk, 50° C., 18 hours. As to the method: Into a 50-mL Falcon tube, 20 mg of HK-1 was weighed out using an electric balance, and therein 20 mL of methanol (1000 γ) was added followed by gentle stirring. Each 3.3 mL was aliquoted to totally two 15-mL Falcon tubes. To one of them 20 μL of 1 N sodium hydroxide was added followed by gentle stirring. The pH was tested with a pH test paper. Ten (10) μL of each sample was subjected to HPLC. The HPLC analysis conditions are as follows. The stability of a compound is regarded as one of the important information for evaluating a substance. This is because, even if the external environment changes, insofar as the compound itself is stable, it can be applied in various situations, and the information leads to acquisition of biological knowledges. Therefore, the stability of the activity was examined by measuring antibacterial activities with respect to G. stearothermophilus, and B. subtilis using the solution prepared in the above “1. Antibacterial spectrum test”. (1) Each 10 mL of the (autoclave treated) LB culture medium (see Example 1) was dispensed into two long test tubes. (2) Into each long test tube, 50 μL of a commercially available G. stearothermophilus spore suspension was seeded. […] The culture medium was taken out from the incubator, and the diameter of the inhibition ring was measured with calipers (Kanon hardened stainless 150 mm).

Series [4] shares this test system. The series can be described thus: Heat resistance test B (storage), antibacterial activity as index. Particulars: FIG. 4-3. As to the method:
Examples of a typical test for measuring the stability of a compound include pH stability test, as well as heat resistance test, and storage test. This information is also regarded as important in evaluating the compound as described above. Using the sample of HK-1 prepared in the above “3. Antibacterial activity test in changing pH”, experiments were carried out to examine whether the compound is stable or not using G. stearothermophilus and B. subtilis guided by the antibacterial activity as the index.
One (1) mL each of two samples prepared in the above “3. Antibacterial activity test in changing pH” was dispensed into two 1-mL micro tubes. The openings of total four tubes were closed hermetically with parafilm, and each one is shielded with an aluminum foil, and stored in a freezer set at −28° C., or an incubator set at 28° C. and 50° C. Each sample was assayed 1, 3, 6, 12, and 24 days after the initiation of the storage using the culture medium for assaying antibacterial activity prepared in “3. Antibacterial activity test in changing pH” above.

≈ marks a conversion by molar mass, not a printed value.

Take `COc1cc(OOc2cc(OC)c3c(c2-c2c(O)c(Cl)c(C)c4c2C(O)c2c(Cl)c(O)cc(O)c2C4=O)C(OC2OC(C)C(O)C2O)c2c(Cl)c(OC)c(Cl)c(C)c2C3=O)c(-c2c(O)c(Cl)c(C)c3c2C(O)c2c(Cl)c(O)cc(O)c2C3=O)c2c1C(=O)c1c(C)c(Cl)c(OC)c(Cl)c1C2OC1OC(C)C(O)C1O` (stereo not shown) [HK-1]: the inhibition ring diameter stood at 22.0 mm in the series on Streptomyces sp. AGRN-7, 22.6 mm in series [3] (solution with pH adjusted to 9) and 21.9 mm in series [3] (solution with pH not adjusted). In addition, the minimum inhibitory concentration (MIC) in series [1] and in series [2] was 0.78 µg/mL (≈ 0.474 µM) each time. For the same molecule, the “difference in antibacterial activity due to the storage temperature” value in series [4] (pH not adjusted, storage at −28° C., 28° C., 50° C., 1 to 24 days) is “no significant difference”. The “antibacterial activity after storage” value in series [4] (two samples (pH 9, pH not adjusted), stored at −28° C., 28° C. and 50° C., after 24 days) is “not lost”.
